Legend:
[1] = system: Human immunodeficiency virus 1; test: Anti-HIV activity against HIV-1 NL4-3 Nanoluc-sec virus infected in human MT4 cells assessed as luciferase activity and measured 3 days post-infection by Nano-Glo luciferase assay; type: functional, organism-based; settings: Human immunodeficiency virus 1, NL4-3, MT4, 72 h
MT4 = test: Cytotoxicity against human MT4 cells assessed as reduction in cell viability by CellTiter-Glo luminescent cell viability assay; type: functional

| SMILES | IC50 [1] [nM] | CC50 (MT4) [nM] |
| --- | --- | --- |
| C=C(C)[C@]12C[C@@H](COC(=O)c3ccccc3)[C@@]34OC5(O[C@@H]1[C@@H]3[C@@H]1O[C@]1(CO)[C@@H](O)[C@@]1(O)[C@H]4[C@H]([C@H](C)[C@@H]1OC(=O)c1ccccc1)[C@H](C)CCCCCC[C@H]5O)O2 | 0.15 | > 7000 |
| CCCC/C=C/C=C/CC(=O)O[C@@]12[C@H](OC(=O)c3ccccc3)[C@@H](C)[C@@]3(O)[C@@H](C=C(CO)C[C@]4(O)C(=O)C(C)=C[C@@H]34)[C@@H]1C2(C)C | 3 | > 7000 |
| CCCCCC/C=C/CC(=O)O[C@@]12[C@H](OC(=O)c3ccccc3)[C@@H](C)[C@@]3(O)[C@@H](C=C(CO)C[C@]4(O)C(=O)C(C)=C[C@@H]34)[C@@H]1C2(C)C | 1.1 | > 7000 |
| CCCCCCCCCC(=O)O[C@@]12[C@H](OC(=O)c3ccccc3)[C@@H](C)[C@]3(O)[C@@H]4C=C(C)C(=O)[C@@]4(O)[C@H](O)C(CO)=C[C@H]3[C@@H]1C2(C)C | 1.5 | > 7000 |
| CCCC/C=C/C=C/CC(=O)O[C@@]12[C@H](OC(=O)c3ccccc3)[C@@H](C)[C@]3(O)[C@@H]4C=C(C)C(=O)[C@@]4(O)[C@H](O)C(CO)=C[C@H]3[C@@H]1C2(C)C | 65.4 | > 7000 |
| CCCCCC/C=C/CC(=O)O[C@@]12[C@H](OC(=O)c3ccccc3)[C@@H](C)[C@]3(O)[C@@H]4C=C(C)C(=O)[C@@]4(O)[C@H](O)C(CO)=C[C@H]3[C@@H]1C2(C)C | 1.5 | > 7000 |

Reference: ChEMBL document CHEMBL5120897, “Anti-HIV Tigliane-Type Diterpenoids from the Aerial Parts of Wikstroemia lichiangensis” (J Nat Prod, 2022)
